Test results reported in patent US7943340B2, “Fungal dipeptidyl peptidase IV (DPPIV) enzyme for reagent use” (priority 2003, dated 2011).
Where two headings read alike, the source gives them in different places. Where a SMILES comes first, the peptide text is derived from it. [ ]: non-standard residue; d: D form. The star is where a group is joined. Sta = CC(C)C[C@H](N)[C@@H](O)CC(=O)O; Isovaleryl = CC(C)CC(=O)*

Legend:
ruLAP2 = ruLAP2 (Trichophyton rubrum, UniProt Q5QHG6); assay type: biochemical; settings: for effect of inhibitor on ruLAP2 activity: Leu-AMC 5 mM, inhibitor concentrations
Description: (§1) Inhibitors and metallic cations were pre-incubated with the enzymes for 15 min at 37° C. Then, Leu-AMC at a 5 mM final concentration was added. After further incubation for 60 min, enzyme activity was measured as described above. The inhibitors and their concentrations tested purified LAPs were: 500 μM amastatin (Bachem), 40 μM benzamidine (Sigma), 500 μM bestatin (Bachem), 5 mM/l mM EDTA (Sigma). 100 μM E-64 (L-trans-epoxysuccinyl-leu-4-guanidinobutylamide) (Bachem), 100 μM leupeptin (Sigma), 5 mM/1 mM ortho-phenanthroline (Sigma), 500 μM p-chloromercuribenzoic acid (Sigma), 100 μM pepstatin A (Sigma), 40 μM PMSF (Sigma), 20 μM TLCK (Roche Diagnostics), and 20 μM TPCK (Roche Diagnostics).

ruLAP1 = ruLAP1 (Trichophyton rubrum, UniProt Q5QHG5); assay type: biochemical; settings: for effect of inhibitor on ruLAP1 activity: Leu-AMC 5 mM, inhibitor concentrations, pepstatin 0.1 mM
Description: as §1

fuLAP1 = fuLAP1 (Aspergillus fumigatus, UniProt Q5VJG6); assay type: biochemical; settings: for effect of divalent cation on fuLAP1 activity: Leu-AMC substrate
Description: as §1

fuLAP2 = assay type: biochemical, Aspergillus fumigatus; settings: for fuLAP2 hydrolytic activity, percentage of control without any cation / fuLAP2 hydrolytic activity, percentage of control without inhibitor: Leu-MCA substrate; for effect of divalent cation on fuLAP2 activity: Leu-AMC substrate; for fuLAP2 hydrolytic activity, percentage of control without inhibitor: inhibitor 100 μM
Description: as §1

[1] = target: T1, pkLAP (microsomal LAP from porcine kidney) (Sus scrofa, UniProt P15145); assay: Effect of chemical reagents (inhibitors, metallic cations) on LAP activity with Leu-AMC; assay type: biochemical
T1 construct: purchased Sigma; host or cells: porcine kidney
T1 sequence (P15145 1-963): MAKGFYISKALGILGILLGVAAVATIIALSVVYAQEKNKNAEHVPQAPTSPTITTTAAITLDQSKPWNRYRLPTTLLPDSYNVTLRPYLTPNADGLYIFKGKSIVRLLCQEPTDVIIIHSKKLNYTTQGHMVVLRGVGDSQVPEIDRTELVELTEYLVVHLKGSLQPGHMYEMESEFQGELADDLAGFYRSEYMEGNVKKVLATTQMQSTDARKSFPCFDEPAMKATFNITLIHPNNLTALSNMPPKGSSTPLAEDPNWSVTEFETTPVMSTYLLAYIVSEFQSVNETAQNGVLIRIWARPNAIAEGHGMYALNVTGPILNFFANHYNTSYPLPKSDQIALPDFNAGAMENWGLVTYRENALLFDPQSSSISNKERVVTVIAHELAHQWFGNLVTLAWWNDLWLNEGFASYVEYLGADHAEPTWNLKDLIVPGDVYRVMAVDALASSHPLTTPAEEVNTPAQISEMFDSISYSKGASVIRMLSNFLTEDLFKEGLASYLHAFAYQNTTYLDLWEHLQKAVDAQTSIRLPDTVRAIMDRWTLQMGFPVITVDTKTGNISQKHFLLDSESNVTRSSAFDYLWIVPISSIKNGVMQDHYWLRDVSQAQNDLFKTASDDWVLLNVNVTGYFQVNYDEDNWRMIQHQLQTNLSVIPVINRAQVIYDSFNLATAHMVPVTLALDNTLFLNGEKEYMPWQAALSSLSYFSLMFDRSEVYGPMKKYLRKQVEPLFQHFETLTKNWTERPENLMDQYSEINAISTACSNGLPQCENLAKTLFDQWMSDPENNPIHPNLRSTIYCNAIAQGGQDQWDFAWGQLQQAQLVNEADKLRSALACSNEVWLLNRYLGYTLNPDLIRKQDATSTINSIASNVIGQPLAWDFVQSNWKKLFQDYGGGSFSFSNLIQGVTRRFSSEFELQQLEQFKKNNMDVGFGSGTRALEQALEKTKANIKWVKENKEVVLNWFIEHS
Description: as §1

[2] = cation salt 0.5 mM, Leu-MCA substrate
[3] = cation salt 1 mM, Leu-MCA substrate
[4] = inhibitor 100 μM, Leu-MCA substrate

ruLAP2, sequence (Q5QHG6 22-495): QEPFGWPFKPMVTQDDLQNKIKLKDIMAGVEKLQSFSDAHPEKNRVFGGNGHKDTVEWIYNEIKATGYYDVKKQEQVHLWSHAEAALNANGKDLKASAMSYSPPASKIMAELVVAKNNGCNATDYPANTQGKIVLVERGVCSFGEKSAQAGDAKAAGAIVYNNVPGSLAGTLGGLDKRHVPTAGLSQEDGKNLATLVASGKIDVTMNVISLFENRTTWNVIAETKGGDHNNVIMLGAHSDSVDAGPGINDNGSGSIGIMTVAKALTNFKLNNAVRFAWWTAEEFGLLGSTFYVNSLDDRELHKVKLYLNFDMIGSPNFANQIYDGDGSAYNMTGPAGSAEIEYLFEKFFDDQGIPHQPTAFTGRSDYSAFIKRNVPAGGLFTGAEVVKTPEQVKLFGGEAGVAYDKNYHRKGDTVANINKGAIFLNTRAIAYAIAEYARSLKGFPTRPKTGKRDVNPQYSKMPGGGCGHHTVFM
fuLAP1, sequence (Q5VJG6 15-388, looked up, natural form): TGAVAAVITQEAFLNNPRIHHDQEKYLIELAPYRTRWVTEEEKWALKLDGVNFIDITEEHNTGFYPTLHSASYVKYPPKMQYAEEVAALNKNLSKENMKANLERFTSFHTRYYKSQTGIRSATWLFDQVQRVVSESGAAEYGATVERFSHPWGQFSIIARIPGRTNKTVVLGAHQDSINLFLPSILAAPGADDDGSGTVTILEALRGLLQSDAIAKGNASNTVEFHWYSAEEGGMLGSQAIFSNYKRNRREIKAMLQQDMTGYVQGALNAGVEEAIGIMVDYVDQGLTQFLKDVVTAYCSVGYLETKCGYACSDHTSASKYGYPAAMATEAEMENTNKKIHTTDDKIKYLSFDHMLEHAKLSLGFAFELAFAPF
ruLAP1, sequence (Q5QHG5 19-373): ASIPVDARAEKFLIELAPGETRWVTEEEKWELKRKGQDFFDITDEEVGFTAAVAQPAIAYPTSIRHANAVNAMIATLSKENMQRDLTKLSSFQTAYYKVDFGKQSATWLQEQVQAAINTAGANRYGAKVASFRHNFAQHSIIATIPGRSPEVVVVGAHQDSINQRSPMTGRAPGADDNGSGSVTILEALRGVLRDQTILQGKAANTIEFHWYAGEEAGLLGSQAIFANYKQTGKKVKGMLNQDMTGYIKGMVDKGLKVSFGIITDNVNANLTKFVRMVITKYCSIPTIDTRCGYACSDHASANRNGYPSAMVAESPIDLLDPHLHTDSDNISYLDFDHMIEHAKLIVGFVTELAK

SMILES	ruLAP1 hydrolytic activity, percentage of control without any cation (ruLAP1; [2])	ruLAP1 hydrolytic activity, percentage of control without any cation (ruLAP1; [3])	ruLAP2 hydrolytic activity, percentage of control without any cation (ruLAP2; [2])	ruLAP2 hydrolytic activity, percentage of control without any cation (ruLAP2; [3])	fuLAP1 hydrolytic activity, percentage of control without any cation (fuLAP1; [2])	fuLAP1 hydrolytic activity, percentage of control without any cation (fuLAP1; [3])	fuLAP2 hydrolytic activity, percentage of control without any cation (fuLAP2; cation salt 0.5 mM)	fuLAP2 hydrolytic activity, percentage of control without any cation (fuLAP2; cation salt 1 mM)	pkLAP hydrolytic activity, percentage of control without any cation [1, 2]	pkLAP hydrolytic activity, percentage of control without any cation [1, 3]	further results
CC(C)C[C@H](NC(=O)[C@H]1O[C@@H]1C(=O)O)C(=O)NCCCCN=C(N)N (relative stereo) [E64, L-trans-epoxysuccinyl-leu-4-guanidinobutylamide]	–	–	–	–	–	–	–	–	–	–	effect of inhibitor on ruLAP2 activity (ruLAP2): blunted the activity
[Ca+2].[Cl-].[Cl-] [CaCl2]	151.7%	175.6%	126.6%	141.9%	54.9%	43.3%	110.0%	165.4%	177.4%	161.8%	–
[Ca+2] [Ca^++]	–	–	–	–	–	–	–	–	–	–	effect of divalent cation on fuLAP1 activity (fuLAP1): inhibited; effect of divalent cation on fuLAP2 activity (fuLAP2): activated
[Cl][Cu][Cl] [Cu^++, CuCl2]	–	–	50.9%	34.7%	25.8%	17.0%	68.9%	73.6%	1422.0%	1092.4%	effect of divalent cation on pkLAP activity ([1]; Leu-AMC substrate): highly activated
CC(C)C[C@H](NC(=O)[C@H]1O[C@@H]1C(=O)O)C(=O)NCCCCN=C(N)N [E 64]	–	–	–	–	–	–	–	–	–	–	ruLAP1 hydrolytic activity, percentage of control without inhibitor (ruLAP1; [4]): 103%; ruLAP2 hydrolytic activity, percentage of control without inhibitor (ruLAP2; [4]): 34%; fuLAP1 hydrolytic activity, percentage of control without inhibitor (fuLAP1; [4]): 190%; fuLAP2 hydrolytic activity, percentage of control without inhibitor (fuLAP2): 71%; pkLAP hydrolytic activity, percentage of control without inhibitor [1, 4]: 93%
O=C(O)CN(CCN(CC(=O)O)CC(=O)O)CC(=O)O [EDTA]	–	–	–	–	–	–	–	–	–	–	effect of inhibitor on ruLAP1 activity (ruLAP1): more sensitive; effect of inhibitor on ruLAP2 activity (ruLAP2): more sensitive
[Cl-].[Cl-].[Mg+2] [MgCl2]	129.9%	132.6%	121.2%	110.2%	68.5%	72.6%	97.6%	108.0%	130.1%	146.1%	–
[Cl][Mn][Cl] [Mn^++, MnCl2]	120.7%	105.2%	77.5%	86.8%	25.9%	28.4%	84.3%	140.2%	157.6%	165.8%	effect of divalent cation on fuLAP1 activity (fuLAP1): inhibited; effect of divalent cation on fuLAP2 activity (fuLAP2): activated
CC(C)CC(=O)N[C@H](C(=O)N[C@H](C(=O)N[C@@H](CC(C)C)[C@@H](O)CC(=O)N[C@@H](C)C(=O)N[C@@H](CC(C)C)[C@@H](O)CC(=O)O)C(C)C)C(C)C [pepstatin, pepstatin A] (Isovaleryl-VV[Sta]A[Sta]-OH)	–	–	–	–	–	–	–	–	–	–	effect of inhibitor on ruLAP1 activity (ruLAP1): some sensitivity; effect of inhibitor on fuLAP1 activity (fuLAP1; Leu-AMC 5 mM, inhibitor concentrations, pepstatin 0.1 mM): some sensitivity; fuLAP2 hydrolytic activity, percentage of control without inhibitor (fuLAP2): 73%
